Reference: patent publication US7045343B2, “Sterilization indicator test packs” (3M Innovative Properties Company, priority 1998, dated 2006)

How the values were obtained:
[1] = tested on: Bacillus stearothermophilus spores; assay: Spore outgrowth (color change) of indicators after hydrogen peroxide plasma sterilization; assay type: cell-based; details: 1–22 min diffusion
Description: (§1) Sterilization indicators for Examples 6–9 were prepared as described above with the exception that closure member 22 of the sterilization indicator was constructed of TYVEK™ high-density polyethylene fiber material, commercially available from E.I. du Pont de Nemours and Co., Wilmington, Del.
(§2) Sterilization indicators were made as described above with spores that had been coated with each of the chemicals and concentrations listed in Table 6. The indicators were placed in instrument trays and exposed to a hydrogen peroxide plasma sterilization procedure at 45–55° C. in a STERRAD™ 100SI GMP Sterilizer, obtained from Advanced Sterilization Products Co., Irvine, Calif. During the sterilization procedure a vacuum was drawn in the sterilization chamber for 5–6 minutes until the pressure was reduced to 300 mTorr. A 1.8 ml aliquot of an aqueous solution of 58–60% hydrogen peroxide was then injected into the sterilization chamber over a period of about 6 minutes, yielding an empty chamber concentration of […] hydrogen peroxide, and hydrogen peroxide vapor was allowed to diffuse throughout the chamber for 1–22 minutes at 6–10 Torr. A vacuum was then drawn, reducing the pressure to 500 mTorr and removing all detectable hydrogen peroxide vapor from the chamber.
(§3) After exposure to the sterilization procedure, the indicators were removed from the sterilizer and the inner containers containing the enzyme substrate and nutrient medium were crushed. The indicators were then incubated at 60° C. and examined for fluorescence every hour for 5 hours using a 3M™ ATTEST™ Model 190 Rapid Autoreader, commercially available from 3M Company, St. Paul, Minn. Additionally, spore growth, as indicated by a color change from purple to yellow, was determined visually after 168 hours of incubation.
(§4) The number of growth positive indicators detected after 168 hours of incubation is recorded in Table 6.
as §2, with “7.” for “6.”
as §2, with “8.” for “6.”, “chamber. […]” for “chamber.”

[2] = tested on: enzyme associated with Bacillus stearothermophilus spores; assay: Rapid enzyme fluorescence readout of dual rapid readout indicators after prevacuum steam sterilization; assay type: biochemical; details: 4-pulse prevacuum steam 121° C.; for FLUORESCENCE - PERCENT POSITIVE 1 HR / FLUORESCENCE - PERCENT POSITIVE 2 HR / FLUORESCENCE - PERCENT POSITIVE 3 HR / FLUORESCENCE - PERCENT POSITIVE 4 HR: Example 4, 7–18 min
Summary of the method: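 Bacillus stearothermophilus ATCC 7953 spores were coated with a sterilant-resistant chemical solution and pipetted onto paper strips at about 1×10^6 spores per strip. Each strip sat in a dual rapid readout indicator beside a crushable inner container of nutrient medium holding 4-methylumbelliferyl-alpha-D-glucoside at pH 7.6. Indicators went through a 4-pulse prevacuum steam cycle at 121° C, were activated, incubated at 60° C, and read for fluorescence on a 3M ATTEST Model 190 Rapid Autoreader.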

[3] = tested on: Bacillus stearothermophilus spores; assay: Spore outgrowth (color change) of indicators after prevacuum steam sterilization; assay type: cell-based; details: Example 4, 4-pulse prevacuum steam 121° C., 7–18 min
Summary of the method: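 Bacillus stearothermophilus ATCC 7953 spores were cleaned, mixed into a heated sterilant-resistant coating chemical solution and pipetted onto paper strips at about 1×10^6 spores per strip. The strips were dried and placed in indicators, then exposed to a 4-pulse prevacuum steam cycle at 121° C. After exposure the media ampoule was crushed, and growth was judged visually as a purple-to-yellow color change after 168 hours at 60° C.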

[4] = tested on: enzyme associated with Bacillus stearothermophilus spores; assay: Rapid enzyme fluorescence readout of indicators after hydrogen peroxide plasma sterilization; assay type: biochemical; details: for FLUORESCENCE - PERCENT POSITIVE 1 HR / FLUORESCENCE - PERCENT POSITIVE 2 HR / FLUORESCENCE - PERCENT POSITIVE 3 HR / FLUORESCENCE - PERCENT POSITIVE 4 HR / FLUORESCENCE - PERCENT POSITIVE 5 HR: 1–22 min diffusion; for accuracy of sterilization indicators compared to indicators made with untreated spores: 1–3 hours after exposure
Description: as §1, §2, §3, §4
as §2, with “7.” for “6.”
as §2, with “8.” for “6.”, “chamber. […]” for “chamber.”

Row | Substance | accuracy of sterilization indicators compared to indicators made with untreated spores [2] | FLUORESCENCE - PERCENT POSITIVE 1 HR ([2]; 50 mg/ml coating) [%] | FLUORESCENCE - PERCENT POSITIVE 2 HR ([2]; 50 mg/ml coating) [%] | FLUORESCENCE - PERCENT POSITIVE 3 HR ([2]; 50 mg/ml coating) [%] | FLUORESCENCE - PERCENT POSITIVE 4 HR ([2]; 50 mg/ml coating) [%] | FLUORESCENCE - PERCENT POSITIVE 1 HR ([2]; 100 mg/ml coating) [%] | FLUORESCENCE - PERCENT POSITIVE 2 HR ([2]; 100 mg/ml coating) [%] | FLUORESCENCE - PERCENT POSITIVE 3 HR ([2]; 100 mg/ml coating) [%] | FLUORESCENCE - PERCENT POSITIVE 4 HR ([2]; 100 mg/ml coating) [%] | NO. GROWTH POSITIVE 168 HR ([3]; 50 mg/ml coating) | NO. GROWTH POSITIVE 168 HR ([3]; 100 mg/ml coating) | NO. GROWTH POSITIVE 168 HR ([1]; Example 6, 50 mg/ml coating) | accuracy of sterilization indicators compared to indicators made with untreated spores [4] | FLUORESCENCE - PERCENT POSITIVE 1 HR ([4]; Example 6, 50 mg/ml coating) [%] | FLUORESCENCE - PERCENT POSITIVE 2 HR ([4]; Example 6, 50 mg/ml coating) [%] | FLUORESCENCE - PERCENT POSITIVE 3 HR ([4]; Example 6, 50 mg/ml coating) [%] | FLUORESCENCE - PERCENT POSITIVE 4 HR ([4]; Example 6, 50 mg/ml coating) [%] | FLUORESCENCE - PERCENT POSITIVE 5 HR ([4]; Example 6, 50 mg/ml coating) [%] | further results
1 | Decaglyceryl Dipalmitate | improved | 7.1 | 67.9 | 89.3 | 92.9 | 34.6 | 61.5 | 69.2 | 69.2 | 28 | 26 |  |  |  |  |  |  |  | NO. GROWTH POSITIVE 168 HR ([1]; Example 8, 50 mg/ml coating): 27; FLUORESCENCE - PERCENT POSITIVE 1 HR ([4]; Example 8, 50 mg/ml coating): 66.7%; FLUORESCENCE - PERCENT POSITIVE 2 HR ([4]; Example 8, 50 mg/ml coating): 74.1%; FLUORESCENCE - PERCENT POSITIVE 3 HR ([4]; Example 8, 50 mg/ml coating): 77.8%; FLUORESCENCE - PERCENT POSITIVE 4 HR ([4]; Example 8, 50 mg/ml coating): 77.8%; FLUORESCENCE - PERCENT POSITIVE 5 HR ([4]; Example 8, 50 mg/ml coating): 77.8%
2 | Tetraglyceryl Monooleate | improved | 0.0 | 52.9 | 52.9 | 58.8 | 57.1 | 100.0 | 100.0 | 100.0 | 17 | 35 | 11 | improved | 76.6 | 90.9 | 100 | 100 | 100 | 
3 | Decaglyceral Hexaoleate |  | 0 | 0 | 22.2 | 55.6 | 5.6 | 16.7 | 27.8 | 33.3 | 9 | 18 |  | improved |  |  |  |  |  | NO. GROWTH POSITIVE 168 HR ([1]; Example 6, 10 mg/ml coating): 12; FLUORESCENCE - PERCENT POSITIVE 1 HR ([4]; Example 6, 10 mg/ml coating): 100%; FLUORESCENCE - PERCENT POSITIVE 2 HR ([4]; Example 6, 10 mg/ml coating): 100%; FLUORESCENCE - PERCENT POSITIVE 3 HR ([4]; Example 6, 10 mg/ml coating): 100%; FLUORESCENCE - PERCENT POSITIVE 4 HR ([4]; Example 6, 10 mg/ml coating): 100%; FLUORESCENCE - PERCENT POSITIVE 5 HR ([4]; Example 6, 10 mg/ml coating): 100%
4 | Decaglyceryl Trioleate |  | 0.0 | 21.1 | 47.4 | 68.4 | 23.1 | 50.0 | 73.1 | 92.3 | 19 | 26 | 40 |  | 85.0 | 97.5 | 100 | 100 | 100 | 
